Measured values as given in article PMC12457078, “Inhibition of soluble epoxide hydrolase in endotoxin induced pig lung injury” (Frontiers in Pharmacology, 2025).
Several values for one entry are separate records, joined by “and”; a condition that tells them apart may be missing. Equal values may be shown once.

System: sEH
Assay: oxylipin analysis, epoxide/diol ratios (target engagement)
Assay type: in vivo, pig
Set-up: 12,13-DiHOME / 9,10-DiHODE / 11,12-DiHETrE / 14,15-DiHETrE / 10,11-DiHDPE / 19,20-DiHDPE / 13-HODE / 5-HETE / 11-HETE / 12-HETE / 5-HEPE / 9(10)-EpOME / 12(13)-EpOME / EKODE / 11(12)-EpETE: unit not given here
Conditions: for 9,10,13-TriHOME sample concentration / 9,12,13-TriHOME sample concentration: bad chromatography
Method: All animals were monitored with pulse oximetry, heart rate, ECG, systemic arterial blood pressure (ABP), pulmonary arterial pressure (PAP), central venous pressure (CVP) temperature, tidal volumes, respiratory rate and end tidal carbon dioxide. At baseline, and at 3 h, 6 h and at the end of the experiment, pulmonary capillary wedge pressure (PCWP) was measured together with arterial and venous blood gas analyses, as well as cardiac output calculations. Routine chemistry, including creatinine, bilirubin, glucose, electrolytes were collected at baseline and at the end of the experiment (Vetscan VS2®, Abaxis, Griesheim, Germany). Blood samples for measurement of AEPU plasma concentrations, as well as oxylipins (i.e., EpETrEs and their DiHETrE corresponding diols as well as related compounds with other polyunsaturated fatty acid precursors), were collected at baseline, 6 h and at the end of the experiment.
This meant nine subjects in each group to achieve 90% power of detecting a difference of this size given α = 0.05. Anticipating that not all experiments would reach completion, we used a sample size of 22. The results were analyzed using SPSS Statistics, version 24 (IBM Corp., Armonk, N.Y., United States). Normality was examined with the Shapiro-Wilk test, together with examination of histograms of data. Continuous variables were compared using Student’s t-test or Mann Whitney U test, as appropriate. Categorical variables were compared using Fischer’s exact test. Statistical significance was set at α < 0.05. Oxylipins with at least 80% of observations above limit of detection at both timepoints were included in pairwise comparisons of ratios and fold-change evaluations where observations below limit of detection (LOD) were substituted with 0.5 x LOD.

[1] = Time (h) 0, single pigs of sEH-i group
[2] = Time (h) 6, single pigs of sEH-i group
[3] = animal 20, time 6, sample Schwein36

CCOCCOCCOCCCCCNC(=O)NC12CC3CC(CC(C3)C1)C2 [sEH-i]
5(6)-EpETrE sample concentration [1]: <LOD | 5,6-DiHETrE sample concentration [1]: <LOD | 7(8)-EpDPE sample concentration [1]: <LOD | 7,8-DiHDPE sample concentration [1]: <LOD | 8(9)-EpETE sample concentration [1]: <LOD | 8(9)-EpETrE sample concentration [1]: <LOD | 8,9-DiHETE sample concentration [1]: <LOD | 9-HETE sample concentration [1]: <LOD | 9-oxo-ODE sample concentration [1]: <LOD | 10(11)-EpDPE sample concentration [1]: <LOD | 11(12)-EpETE sample concentration [1]: 0.1209 pmol/mL and 0.141 pmol/mL and 0.08872 pmol/mL | 13(14)-EpDPE sample concentration [1]: <LOD | 14(15)-EpETE sample concentration [1]: <LOD | 15-HEPE sample concentration [1]: <LOD | 16(17)-EpDPE sample concentration [1]: <LOD | 17(18)-EpETE sample concentration [1]: <LOD | 17-HDoHE sample concentration [1]: <LOD | 19(20)-EpDPE sample concentration [1]: <LOD | LTB4 sample concentration [1]: <LOD | PGD2 sample concentration [1]: <LOD | PGE2 sample concentration [1]: <LOD | PGF2a sample concentration [1]: <LOD | Resolvin D1 sample concentration [1]: <LOD | Resolvin D2 sample concentration [1]: <LOD | TXB2 sample concentration [1]: 0.17 pmol/mL and 0.31 pmol/mL | 9,10,13-TriHOME sample concentration [1]: 4.78 pmol/mL and 2.75 pmol/mL and 3.27 pmol/mL | 9,12,13-TriHOME sample concentration [1]: <LOD | 5(6)-EpETrE sample concentration [2]: <LOD | 7(8)-EpDPE sample concentration [2]: <LOD | 7,8-DiHDPE sample concentration [2]: <LOD | 8(9)-EpETE sample concentration [2]: <LOD | 8(9)-EpETrE sample concentration [2]: <LOD | 9-HETE sample concentration [2]: <LOD | 9-oxo-ODE sample concentration [2]: <LOD | 10(11)-EpDPE sample concentration [2]: <LOD | 11(12)-EpETE sample concentration [2]: 0.1453 pmol/mL and 0.09993 pmol/mL and 0.1012 pmol/mL | 13(14)-EpDPE sample concentration [2]: <LOD | 14(15)-EpETE sample concentration [2]: <LOD | 15-HEPE sample concentration [2]: <LOD | 16(17)-EpDPE sample concentration [2]: <LOD | 17(18)-EpETE sample concentration [2]: <LOD | 19(20)-EpDPE sample concentration [2]: <LOD | LTB4 sample concentration [2]: <LOD | PGD2 sample concentration [2]: <LOD | PGE2 sample concentration [2]: <LOD | Resolvin D1 sample concentration [2]: <LOD | Resolvin D2 sample concentration [2]: <LOD | TXB2 sample concentration [2]: 1.20 pmol/mL and 2.15 pmol/mL and 2.09 pmol/mL | 9,10,13-TriHOME sample concentration [2]: 4.27 pmol/mL and 3.59 pmol/mL and 2.73 pmol/mL | 9,12,13-TriHOME sample concentration [2]: <LOD | 5(6)-EpETrE [3]: <LOD | 5,6-DiHETrE [3]: <LOD | 5-HEPE [3]: <LOD | 5-HETE [3]: <LOD | 5-oxo-ETE [3]: 0.05 | 7(8)-EpDPE [3]: <LOD | 7,8-DiHDPE [3]: <LOD | 8(9)-EpETE [3]: <LOD | 8(9)-EpETrE [3]: <LOD | 8,9-DiHETE [3]: <LOD | 8,9-DiHETrE [3]: 0.0443 | 8-HETE [3]: 0.0319 | 9(10)-EpODE [3]: <LOD | 9(10)-EpOME [3]: 0.34 | 9,10,13-TriHOME [3]: 6.77 | 9,10-DiHODE [3]: 0.0155 | 9,10-DiHOME [3]: 0.21 | 9,12,13-TriHOME [3]: <LOD | 9-HETE [3]: <LOD | 9-HODE [3]: 1.17 | 9-HOTrE [3]: 0.2865 | 9-oxo-ODE [3]: <LOD | 10(11)-EpDPE [3]: <LOD | 10,11-DiHDPE [3]: <LOD | 11(12)-EpETE [3]: 0.0834 | 11(12)-EpETrE [3]: 0.0219 | 11,12-DiHETE [3]: 0.0228 | 11,12-DiHETrE [3]: 0.45 | 11-HETE [3]: 0.12 | 12(13)-EpODE [3]: <LOD | 12(13)-EpOME [3]: 0.3027 | 12,13-DiHODE [3]: <LOD | 12,13-DiHOME [3]: 0.26 | 12-HEPE [3]: 0.0122 | 12-HETE [3]: 0.06381 | 12-oxo-ETE [3]: <LOD | 13(14)-EpDPE [3]: <LOD | 13,14-DiHDPE [3]: 0.04 | 13-HODE [3]: 4.33 | 13-HOTrE [3]: <LOD | 13-oxo-ODE [3]: <LOD | 14(15)-EpETE [3]: <LOD | 14(15)-EpETrE [3]: <LOD | 14,15-DiHETrE [3]: 0.58 | 15(16)-EpODE [3]: 0.25 | 15,16-DiHODE [3]: 2.37
